Measurements: patent publication US20240417387A1, “SULFONYLPIPERAZINYL COMPOUNDS FOR TREATMENT OF BACTERIAL INFECTIONS” (Hoffmann-La Roche Inc., priority 2021, published 2024)
In brackets after ≈: the same amount, converted by molar mass.

What was measured:
[1] = test system: Escherichia coli ATCC 25922; assay: Minimal Inhibitory Concentration (MIC) broth dilution assay, E. coli ATCC 25922; format: cell-based; conditions: Escherichia coli, ATCC25922, 20 h, read-out: MIC E. coli ATCC 25922
Method in brief: (§1)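 Broth microdilution with twofold compound series in cation-adjusted Mueller Hinton broth, inoculum 5×10^5 CFU/mL, applied to each strain. Plates incubated 20 h at 35 °C in ambient air. MIC […] recorded as the lowest concentration with no visible growth, read by eye.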

[2] = Human microsome stability assay; format: in vitro ADME; conditions: human liver microsomes 0.5 mg/mL, 37° C., pH 7.4, NADPH regenerating system
Method in brief: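 Compound […] with 0.5 mg/mL human liver microsomal protein in 100 mM potassium phosphate pH 7.4, 10 min preincubation at 37 °C, started with NADPH regenerating system. Sampled 0–30 min, remaining compound by LC-MS/MS; clearance binned low <7, medium 7–16.2, high >16.2 mL/min/kg.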

[3] = test system: Escherichia coli BW 25113; assay: Minimal Inhibitory Concentration (MIC) broth dilution assay, E. coli BW 25113; format: cell-based; conditions: Escherichia coli, BW25113, 20 hours at 35° C., CAMHB, read-out: MIC E. coli K-12 BW 25113
Method in brief: as §1

[4] = test system: Klebsiella pneumonia ATCC 43816; assay: Minimal Inhibitory Concentration (MIC) broth dilution assay, K. pneumonia ATCC 43816; format: cell-based; conditions: Klebsiella pneumoniae, ATCC43816, 20 hours at 35° C., CAMHB, read-out: MIC K. p ATCC 43816
Method in brief: as §1

LPS synthesis pathway = conditions: reported in Bioorganic Chemistry (2020), 102, 104055; cited from earlier work
[5] = test system: efflux-deficient Escherichia coli strains; conditions: reported in Bioorganic Chemistry (2020), 102, 104055; cited from earlier work
[6] = molecular target: Escherichia coli UDP-2,3-diacylglucosamine hydrolase (LpxH) (Escherichia coli (strain K12), UniProt P43341); assay: Enzymatic IC50 assay of Escherichia coli LpxH (UMP/CMP-Glo luminescence); format: biochemical; conditions: Enzymatic IC50 against Escherichia coli LpxH; read-out: IC50 (converted)
Method in brief: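 LpxH (2 nM) preincubated 10 min at room temperature with compound (100 μM to 1.7 nM) in Tris-HCl pH7.5 buffer with 2.5 mM MnCl2, then reacted with 5 μM UDP-DAG for 20 min. Reaction heat-stopped at 95° C.; released UMP converted to ATP and read by luciferase luminescence (UMP/CMP-Glo).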

Sequence of Escherichia coli UDP-2,3-diacylglucosamine hydrolase (LpxH) (P43341 whole entry): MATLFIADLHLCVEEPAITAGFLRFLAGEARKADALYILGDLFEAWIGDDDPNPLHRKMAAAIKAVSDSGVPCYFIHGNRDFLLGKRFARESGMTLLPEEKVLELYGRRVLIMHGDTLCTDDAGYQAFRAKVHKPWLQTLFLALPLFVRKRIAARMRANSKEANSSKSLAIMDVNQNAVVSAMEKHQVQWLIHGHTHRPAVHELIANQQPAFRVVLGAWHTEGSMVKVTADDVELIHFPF

Structure (SMILES)	MIC [1] [µg/mL]	Clearance of Human microsome [2] [mL/min/kg]	MIC [3] [µg/mL]	MIC [4] [µg/mL]	LPS synthesis pathway inhibition activity (LPS synthesis pathway)	antibiotic activity against efflux-deficient Escherichia coli strains [5]	IC50 [6] [nM]
CC(=O)N1CCc2cc(S(=O)(=O)N3CCN(c4cc(Cl)cc(C(F)(F)F)c4)CC3)ccc21 [JH-LPH-33, reference compound]	> 24	20.94	> 24	> 24	LPS synthesis pathway inhibition activity	antibiotic activity	293
C[N+](C)(CCN)CCNC(=O)[C@H]1CC[C@H](C(F)(F)c2cc(Cl)nc(N3CCN(S(=O)(=O)c4ccc(N5C[C@H](N)CC5=O)cc4)CC3)c2)CC1 [Example 073, Trans-2-aminoethyl-[2-[[4-[[2-chloro-6-[4-[4-[(4R)-4-amino-2-oxo-pyrrolidin-1-yl]phenyl]sulfonylpiperazin-1-yl]-4-pyridyl]-difluoro-methyl]cyclohexanecarbonyl]amino]ethyl]-dimethyl-ammonium]	1.2	6.15	1.2	2.4	–	–	< 2.75
NCC(=O)NCCNC(=O)[C@H]1CC[C@H](C(F)(F)c2cc(Cl)nc(N3CCN(S(=O)(=O)c4ccc(N5C[C@H](N)CC5=O)cc4)CC3)c2)CC1 [Example 075, Trans-N-[2-[(2-aminoacetyl)amino]ethyl]-4-[[2-chloro-6-[4-[4-[(4R)-4-amino-2-oxo-pyrrolidin-1-yl]phenyl]sulfonylpiperazin-1-yl]-4-pyridyl]-difluoro-methyl]cyclohexanecarboxamide]	2.3 (≈ 3.23 µM)	10.47	2.3 (≈ 3.23 µM)	1.2 (≈ 1.69 µM)	–	–	8.44
CN(C)CCCNC(=O)c1ccc(C(F)(F)c2cc(Cl)nc(N3CCN(S(=O)(=O)c4ccc(N5C[C@H](N)CC5=O)cc4)CC3)c2)cc1 [Example 020, 4-[[2-chloro-6-[4-[4-[(4R)-4-amino-2-oxo-pyrrolidin-1-yl]phenyl]sulfonylpiperazin-1-yl]-4-pyridyl]-difluoro-methyl]-N-[3-(dimethylamino)propyl]benzamide]	0.72 (≈ 1.04 µM)	9.48	0.72 (≈ 1.04 µM)	0.72 (≈ 1.04 µM)	–	–	2.9
CNCCCNC(=O)c1ccc(C(F)(F)c2cc(Cl)nc(N3CCN(S(=O)(=O)c4ccc(N5C[C@H](N)CC5=O)cc4)CC3)c2)cn1 [Example 029, 5-[[2-chloro-6-[4-[4-[(4R)-4-amino-2-oxo-pyrrolidin-1-yl]phenyl]sulfonylpiperazin-1-yl]-4-pyridyl]-difluoro-methyl]-N-[3-(methylamino)propyl]pyridine-2-carboxamide]	1.4 (≈ 2.07 µM)	7.22	2.8 (≈ 4.13 µM)	1.4 (≈ 2.07 µM)	–	–	2.95
NCCNCCNC(=O)[C@H]1CC[C@H](C(F)(F)c2cc(Cl)nc(N3CCN(S(=O)(=O)c4ccc(N5C[C@H](N)CC5=O)cc4)CC3)c2)CC1 [Example 072, Trans-N-[2-(2-aminoethylamino)ethyl]-4-[[2-chloro-6-[4-[4-[(4R)-4-amino-2-oxo-pyrrolidin-1-yl]phenyl]sulfonylpiperazin-1-yl]-4-pyridyl]-difluoro-methyl]cyclohexanecarboxamide]	1.1 (≈ 1.58 µM)	6.15	0.57 (≈ 0.817 µM)	1.1 (≈ 1.58 µM)	–	–	4.3
NCCCNC(=O)[C@H]1CC[C@@H](C(F)(F)c2cc(Cl)nc(N3CCN(S(=O)(=O)c4ccc(N5C[C@H](N)CC5=O)cc4)CC3)c2)CC1 [Example 031]	2.2 (≈ 3.29 µM)	6.15	1.7 (≈ 2.54 µM)	2.2 (≈ 3.29 µM)	–	–	7.48
CC(CN)NC(=O)[C@H]1CC[C@H](C(F)(F)c2cc(Cl)nc(N3CCN(S(=O)(=O)c4ccc(N5C[C@H](N)CC5=O)cc4)CC3)c2)CC1 (stereo partly drawn) [Example 008, Trans-N-(2-amino-1-methyl-ethyl)-4-[[2-chloro-6-[4-[4-[(4R)-4-amino-2-oxo-pyrrolidin-1-yl]phenyl]sulfonylpiperazin-1-yl]-4-pyridyl]-difluoro-methyl]cyclohexanecarboxamide]	0.52 (≈ 0.778 µM)	8.07	1 (≈ 1.5 µM)	0.52 (≈ 0.778 µM)	–	–	5.99
